Source: patent EP4273147A1, “SUBSTITUTED SPIROLACTAMS, SALTS THEREOF AND THEIR USE AS HERBICIDALLY ACTIVE SUBSTANCES” (Bayer Aktiengesellschaft, priority 2022, dated 2023)

Tests used:
DIGSA [1] = test: Herbicidal pre-emergence action, section C (Table C5); type: in vivo, Digitaria sanguinalis; settings: application rate 80 g/ha; visual grading after ca. 3 weeks
SETVI = test: Herbicidal pre-emergence action, section C (Table C10); type: in vivo, Setaria viridis; settings: application rate 80 g/ha; visual grading after ca. 3 weeks
ZEAMX = test: Post-emergence effects on crop plants (Table F1); type: in vivo, Zea mays; settings: application rate 320 g/ha, crop plant ZEAMX
From the text: (§1) 2 to 3 weeks after sowing, the test plants were sprayed in the single-leaf stage.

AVEFA = test: Herbicidal pre-emergence action, section C (Table C4); type: in vivo, Avena fatua; settings: application rate 320 g/ha; visual grading after ca. 3 weeks
From the text: (§2) Seeds of mono- and dicotyledonous weed plants and crop plants were sown, in plastic or organic planting pots, in sandy loam and covered with soil. The compounds according to the invention, formulated in the form of wettable powders (WP) or as emulsifiable concentrates (EC), were applied to the surface of the covering soil as aqueous suspension or emulsion, with the addition of 0.5% of an additive, at an application rate of 600 1 of water/ha (converted). Following treatment, the pots were placed in a greenhouse and kept under optimum growth conditions for the test plants.

AMARE = test: Herbicidal pre-emergence action, section C (Table C3); type: in vivo, Amaranthus retroflexus; settings: application rate 320 g/ha; visual grading after ca. 3 weeks
From the text: as §2

LOLRI = test: Herbicidal pre-emergence action, section C (Table C7); type: in vivo, Lolium rigidum; settings: application rate 320 g/ha; visual grading after ca. 3 weeks
From the text: as §2

TRZAS = test: Post-emergence effects on crop plants (Table F2); type: in vivo, Triticum aestivum; settings: application rate 80 g/ha, crop plant TRZAS
From the text: as §1

ORYZA = test: Post-emergence effects on crop plants (Table F3); type: in vivo, Oryza sativa; settings: application rate 80 g/ha, crop plant ORYZA
From the text: as §1

MATIN = test: Herbicidal pre-emergence action, section C (Table C8); type: in vivo, Matricaria inodora; settings: application rate 320 g/ha; visual grading after ca. 3 weeks
ECHCG [2] = test: Herbicidal post-emergence action, section E (Table E5); type: in vivo, Echinochloa crus-galli; settings: application rate 320 g/ha; assessed visually after ca. 3 weeks
From the text: as §1

GLXMA = test: Post-emergence effects on crop plants (Table F4); type: in vivo, Glycine max; settings: application rate 80 g/ha, crop plant GLXMA
From the text: as §1

BRSNW = test: Post-emergence effects on crop plants (Table F5); type: in vivo, Brassica napus; settings: application rate 320 g/ha, crop plant BRSNW
From the text: as §1

VERPE [3] = test: Herbicidal post-emergence action, section E (Table E9); type: in vivo, Veronica persica; settings: application rate 320 g/ha; assessed visually after ca. 3 weeks
From the text: as §1

VERPE [4] = test: Herbicidal pre-emergence action, section C (Table C11); type: in vivo, Veronica persica; settings: application rate 320 g/ha; visual grading after ca. 3 weeks
VIOTR = test: Herbicidal pre-emergence action, section C (Table C12); type: in vivo, Viola tricolor; settings: application rate 80 g/ha; visual grading after ca. 3 weeks
ALOMY [5] = test: Herbicidal post-emergence action, section E (Table E2); type: in vivo, Alopecurus myosuroides; settings: application rate 80 g/ha; assessed visually after ca. 3 weeks
From the text: as §1

DIGSA [6] = test: Herbicidal post-emergence action, section E (Table E4); type: in vivo, Digitaria sanguinalis; settings: application rate 320 g/ha; assessed visually after ca. 3 weeks
From the text: as §1

ECHCG [7] = test: Herbicidal pre-emergence action, section C (Table C6); type: in vivo, Echinochloa crus-galli; settings: application rate 80 g/ha; visual grading after ca. 3 weeks
POLCO = test: Herbicidal pre-emergence action, section C (Table C9); type: in vivo, Polygonum convolvulus; settings: application rate 80 g/ha; visual grading after ca. 3 weeks
ALOMY [8] = test: Herbicidal pre-emergence action, section C (Table C2); type: in vivo, Alopecurus myosuroides; settings: application rate 80 g/ha; visual grading after ca. 3 weeks

O=C1N(Cc2c(F)cccc2F)CCCC12CCCN(Cc1c(F)cccc1F)C2=O (single isomer, unassigned; (-)) [I-009, (-)-2,8-bis[(2,6-difluorophenyl)methyl]-2,8-diazaspiro[5.5]undecane-1,7-dione]
pre-emergence activity against DIGSA (DIGSA [1]): 100% | pre-emergence activity against SETVI (SETVI): 100% | post-emergence activity against ZEAMX (ZEAMX): 20% | pre-emergence activity against AVEFA (AVEFA): 90% | pre-emergence activity against AMARE (AMARE): 90% | pre-emergence activity against LOLRI (LOLRI): 100% | post-emergence activity against TRZAS (TRZAS): 10% | post-emergence activity against ORYZA (ORYZA): 10% | pre-emergence activity against MATIN (MATIN): 90% | post-emergence activity against ECHCG (ECHCG [2]): 90% | post-emergence activity against GLXMA (GLXMA): 20% | post-emergence activity against BRSNW (BRSNW): 20% | post-emergence activity against VERPE (VERPE [3]): 80% | pre-emergence activity against VERPE (VERPE [4]): 90% | pre-emergence activity against VIOTR (VIOTR): 80% | post-emergence activity against ALOMY (ALOMY [5]): 80% | post-emergence activity against DIGSA (DIGSA [6]): 90% | pre-emergence activity against ECHCG (ECHCG [7]): 100% | pre-emergence activity against POLCO (POLCO): 80% | pre-emergence activity against ALOMY (ALOMY [8]): 100%
